Experimental data published in ChEMBL document CHEMBL1201862, “PubChem BioAssay data set” (2004).
“And” between values parts separate entries of the source, which are not always exact repeats. Identical values can stand only once.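 1) Cells in 96-well plates. 2) Compound, 48 h, 5 concentrations. 3) Linear interpolation between surrounding doses. 4) Unreached endpoint = highest concentration. GI50 is the concentration that inhibits growth by half.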 The source made the active and inactive calls. Rule as the data show it: active = GI50 up to about 1.1 µM and inactive = higher.

Assays:
Assay in all cases: NCI-60 cell line screen, 48 h
HT-29 = test system: HT-29
SR = test system: SR
RPMI-8226 = test system: RPMI-8226
XF498 = test system: XF498
CAKI-1 = test system: CAKI-1
HCC 2998 = test system: HCC 2998
CCRF-CEM = test system: CCRF-CEM
DMS-273 = test system: DMS-273
A549 = test system: A549
NCI-H460 = test system: NCI-H460
UACC-257 = test system: UACC-257
TK-10 = test system: TK-10
IGROV-1 = test system: IGROV-1
786-0 = test system: 786-0
UACC-62 = test system: UACC-62
SK-OV-3 = test system: SK-OV-3
A498 = test system: A498
NCI/ADR-RES = test system: NCI/ADR-RES
MDA-MB-231 = test system: MDA-MB-231
T47D = test system: T47D

Measured: GI50

COc1ccccc1C1C(Cl)C(=O)N1n1cnc2ccccc2c1=O (stereo not drawn)
inactive: HT-29 > 100 µM | SR 85.9 µM | RPMI-8226 > 100 µM | XF498 > 100 µM | CAKI-1 > 100 µM | HCC 2998 > 100 µM | CCRF-CEM > 100 µM | DMS-273 > 100 µM | A549 > 100 µM | NCI-H460 > 100 µM | UACC-257 > 100 µM | TK-10 > 100 µM | IGROV-1 > 100 µM | 786-0 > 100 µM | UACC-62 > 100 µM | SK-OV-3 > 100 µM

CCCCCCCCC(O)c1ccc(/C=C\C(O)CCCC(=O)O)s1 (stereo not drawn)
inactive: HT-29 > 100 µM | SR > 100 µM | RPMI-8226 > 100 µM | XF498 > 100 µM | HCC 2998 > 100 µM | CCRF-CEM > 100 µM | DMS-273 > 100 µM | A549 > 100 µM | NCI-H460 > 100 µM | UACC-257 > 100 µM | TK-10 > 100 µM | IGROV-1 > 100 µM | 786-0 > 100 µM | UACC-62 > 100 µM | SK-OV-3 > 100 µM

c1c2c(cc(-n3nnc4c3CCCCCC4)c1-n1nnc3c1CCCCCC3)CCCCCC2
inactive: HT-29 6.93 µM | SR 3.54 µM | XF498 1.9 µM | CAKI-1 2.12 µM | HCC 2998 12.8 µM | CCRF-CEM 3.79 µM | DMS-273 2.99 µM | NCI-H460 6.3 µM | UACC-257 11.7 µM | TK-10 12.6 µM | A498 10.4 µM | IGROV-1 18.3 µM | UACC-62 12.4 µM | SK-OV-3 14.8 µM

O=C(NC(Cc1ccc(I)cc1)C(=O)O)c1ccc(I)cc1 (stereo not drawn)
inactive: HT-29 > 100 µM | RPMI-8226 40.3 µM | XF498 > 66.4 µM | NCI/ADR-RES > 100 µM | CAKI-1 > 100 µM | HCC 2998 > 41.7 µM | CCRF-CEM 48.2 µM | DMS-273 94.8 µM | A549 98.6 µM | NCI-H460 57.9 µM | UACC-257 > 100 µM | A498 > 100 µM | IGROV-1 > 24.4 µM | UACC-62 29.6 µM | SK-OV-3 > 100 µM

COc1cc(NC(C)CCCN)c2ncccc2c1 (stereo not drawn) [PRIMAQUINE PHOSPHATE]
inactive: HT-29 37.1 µM and 28.8 µM | RPMI-8226 42.8 µM and 22.6 µM | XF498 35 µM | NCI/ADR-RES > 100 µM | CAKI-1 59 µM and 62.4 µM | HCC 2998 28.2 µM and 16.9 µM | CCRF-CEM 26.7 µM and 45.8 µM | DMS-273 > 100 µM | A549 > 100 µM | MDA-MB-231 43.7 µM | T47D 16 µM | TK-10 49.8 µM and > 94.4 µM | IGROV-1 51.4 µM and > 88.7 µM

CC1C(=O)C(C)C(c2cccs2)N(N=O)C1c1cccs1 (stereo not drawn)
inactive: HT-29 > 35 µM | RPMI-8226 > 100 µM | XF498 14.8 µM | NCI/ADR-RES > 100 µM | CAKI-1 > 100 µM | HCC 2998 > 100 µM | CCRF-CEM > 100 µM | DMS-273 > 100 µM | A549 > 100 µM | NCI-H460 > 100 µM | UACC-257 > 100 µM | IGROV-1 > 100 µM | UACC-62 > 100 µM | SK-OV-3 > 56 µM

Fc1ccccc1C1CC(C(c2ccccc2)c2ccccc2)=Nc2ccccc2S1 (stereo not drawn)
inactive: HT-29 5.61 µM | RPMI-8226 3.6 µM | XF498 13.7 µM | CAKI-1 6.25 µM | HCC 2998 5.35 µM | CCRF-CEM 1.91 µM | DMS-273 4.76 µM | A549 11.4 µM | NCI-H460 4.89 µM | UACC-257 12.9 µM | TK-10 10.7 µM | A498 6.53 µM | IGROV-1 6.95 µM | 786-0 4.23 µM | UACC-62 3.27 µM | SK-OV-3 26.9 µM

COC(=O)N/N=C(/CC1(O)C(=O)Nc2ccc([N+](=O)[O-])cc21)c1ccccc1 (stereo not drawn)
inactive: HT-29 31.4 µM | SR 29.9 µM | RPMI-8226 44.6 µM | XF498 19.4 µM | NCI/ADR-RES 21.8 µM | CAKI-1 75.7 µM | HCC 2998 67.1 µM | CCRF-CEM 29.6 µM | DMS-273 67.8 µM | A549 63.1 µM | NCI-H460 63.8 µM | UACC-257 42.4 µM | MDA-MB-231 18.3 µM | T47D 48.8 µM | TK-10 24.9 µM | A498 14 µM | IGROV-1 > 46.7 µM | 786-0 25.4 µM | UACC-62 24.7 µM | SK-OV-3 66.4 µM

COc1ccc(/C=C2\CCNC2=O)cc1
inactive: HT-29 > 100 µM | RPMI-8226 > 100 µM | XF498 > 100 µM | NCI/ADR-RES > 100 µM | CAKI-1 > 100 µM | HCC 2998 > 48.5 µM | CCRF-CEM > 100 µM | DMS-273 > 100 µM | A549 > 100 µM | NCI-H460 > 100 µM | UACC-257 > 100 µM | A498 > 53.7 µM | IGROV-1 > 100 µM | UACC-62 > 100 µM | SK-OV-3 > 100 µM
